Blank lines part the entries; values can stand above or below the compound they belong to. Active and inactive are the calls of the source. No cut-off for these calls is given here. *1 amine or outer side, *2 acyl side, *3 side chain or, on linkers, in order; H or OH if unused. Where a SMILES comes first, the peptide text is derived from it. Bridges are numbered along the chain shown (N, C = ends). Roman numbers before positions name the chains, in order. [ ]: non-standard residue; d: D form. The star is where a group is joined. X2 = O=C(O)c1cc(C(=O)*)ccc1-c1c2ccc3cc(O)ccc3c2oc2c1ccc1cc(=O)ccc12; 2Nal = N[C@@H](Cc1ccc2ccccc2c1)C(=O)O; mXylylene = c1cc(C[*:1])cc(C[*:2])c1; AEEA = NCCOCCOCC(=O)O; βAla = NCCC(=O)O
Key:
[1] = test system: SW480; assay: Antiproliferative activity against human SW480 cells incubated for 72 hrs by MTT assay; assay type: functional, cell-based; conditions: SW480, 72 h
[2] = test system: MCF7; assay: Antiproliferative activity against human MCF7 cells incubated for 72 hrs by MTT assay; assay type: functional, cell-based
[3] = test system: SJSA-1; assay: Induction of apoptosis in human SJSA1 cells at 10 uM incubated for 48 hrs by Annexin V/propidium iodide-staining based flow cytometric analysis; assay type: functional, cell-based
[4] = test system: MCF7; assay: Induction of apoptosis in human MCF7 cells expressing wild-type p53 at =< 10 uM incubated for 48 hrs by Annexin V/propidium iodide-staining based flow cytometric analysis relative to control; assay type: functional
[5] = test system: HCT-116; assay: Induction of apoptosis in human HCT116 cells expressing wild-type p53 at =< 10 uM incubated for 48 hrs by Annexin V/propidium iodide-staining based flow cytometric analysis relative to control; assay type: functional
[6] = test system: HeLa; assay: Induction of apoptosis in human HeLa cells expressing wild-type p53 at =< 10 uM incubated for 48 hrs by Annexin V/propidium iodide-staining based flow cytometric analysis relative to control; assay type: functional
[7] = test system: MCF7; assay: Induction of cell membrane disruption in human MCF7 cells expressing wild-type p53 at =>20 uM incubated for 4 hrs by LDH assay relative to control; assay type: functional
[8] = test system: HCT-116; assay: Induction of cell membrane disruption in human HCT116 cells expressing wild-type p53 at =>20 uM incubated for 4 hrs by LDH assay relative to control; assay type: functional
[9] = test system: HeLa; assay: Induction of cell membrane disruption in human HeLa cells expressing wild-type p53 at =>20 uM incubated for 4 hrs by LDH assay relative to control; assay type: functional
[10] = test system: HeLa; assay: Cytotoxicity against human HeLa cells incubated for 72 hrs using FAM-labeled compound by MTT assay; assay type: cell-based
[11] = test system: HeLa; assay: Induction of cell membrane disruption in human HeLa cells incubated for 4 hrs using FAM-labeled compound by LDH assay; assay type: cell-based
[12] = test system: SJSA-1; assay: cells; conditions: Homo sapiens, SJSA-1, 72 h
[13] = test system: SJSA-1; conditions: Homo sapiens
[14] = Permeability of the compound in human HeLa cells at 5 uM incubated for 2 hrs by flow cytometric analysis relative to CPP9; assay type: ADME, cell-based
[15] = test system: SJSA-1; assay: Antiproliferative activity against human SJSA1 cells expressing wild-type p53 upto 20 uM incubated for 72 hrs by MTT assay; assay type: functional, cell-based

Structure (SMILES): CC[C@H](C)[C@@H]1NC(=O)[C@@H](NC(=O)[C@H](CCC(=O)O)NC(=O)[C@@H]2CCCN2C(=O)[C@H](Cc2ccc(O)cc2)NC(=O)CNC(=O)CNC(C)=O)CC(=O)NCCCC[C@@H](C(=O)N[C@@H](Cc2cnc[nH]2)C(=O)N[C@@H](CC(C)C)C(=O)N[C@@H](CCC(N)=O)C(=O)N[C@@H](CCCNC(=N)N)C(=O)N[C@H](C(=O)N[C@H](C(=O)N[C@@H](CC(C)C)C(=O)NCCOCCOCC(=O)NCCOCCOCC(=O)N[C@@H](CNC(=O)[C@H](CCCNC(=N)N)NC(=O)[C@H](CCCNC(=N)N)NC(=O)[C@H](CCCNC(=N)N)NC(=O)[C@H](CCC(N)=O)NC(=O)[C@H](CCCNC(=N)N)NC(=O)[C@H](CCCNC(=N)N)NC(=O)[C@H](CCCCN)NC(=O)[C@H](CCCCN)NC(=O)[C@H](CCCNC(=N)N)NC(=O)CNC(=O)[C@H](Cc2ccc(O)cc2)NC(C)=O)C(N)=O)[C@@H](C)CC)C(C)C)NC(=O)[C@H](CC(=O)O)NC(=O)[C@H](CC(C)C)NC1=O
IC50 [1]: > 20 µM | Activity [2]: Active

Structure (SMILES): CC(=O)N[C@@H](CC(C)C)C(=O)N[C@H](C(=O)N[C@@H](Cc1ccccc1)C(=O)N[C@H]1CC(=O)NCCCC[C@@H](C(=O)N[C@@H](CCC(N)=O)C(=O)N[C@@H](CC(C)C)C(=O)N[C@H](C(=O)N[C@@H](CO)C(=O)NCCOCCOCC(=O)N[C@@H](CCCCNC(=O)CC[C@@H]2NC(=O)[C@@H](CCCNC(=N)N)NC(=O)[C@H](CCCNC(=N)N)NC(=O)[C@@H](CCCNC(=N)N)NC(=O)[C@H](CCCNC(=N)N)NC(=O)[C@H](Cc3ccc4ccccc4c3)NC(=O)[C@@H](Cc3ccccc3)NC2=O)C(N)=O)[C@@H](C)O)NC(=O)[C@H](Cc2c[nH]c3ccccc23)NC(=O)[C@H](Cc2ccc(O)cc2)NC(=O)[C@H](Cc2cnc[nH]2)NC1=O)[C@@H](C)O (I: Ac-LTFDHYWKQLTS[AEEA]K-NH2 / II: cyclo([2Nal]R[dR]R[dR]E[dF]); lactam I:4-I:8; amide I:14-II:6)
Activity [3]: Active | Activity [4]: 5 - 50% | Activity [5]: 5 - 50% | Activity [6]: 5 - 50% | Activity [7]: 100% | Activity [8]: 100% | Activity [9]: 100% | Activity [10]: Toxic | Activity [11]: Toxic | EC50 [12]: 3.8 µM | Activity [13]: Dose-dependent effect

Structure (SMILES): CC[C@H](C)[C@@H]1NC(=O)[C@@H](NC(=O)[C@H](CCC(=O)O)NC(=O)[C@@H]2CCCN2C(=O)[C@H](Cc2ccc(O)cc2)NC(=O)CNC(=O)CNC(C)=O)CC(=O)NCCCC[C@@H](C(=O)N[C@@H](Cc2cnc[nH]2)C(=O)N[C@@H](CC(C)C)C(=O)N[C@@H](CCC(N)=O)C(=O)N[C@@H](CCCNC(=N)N)C(=O)N[C@H](C(=O)N[C@H](C(=O)N[C@@H](CC(C)C)C(=O)NCCOCCOCC(=O)NCCOCCOCC(=O)N[C@@H](CNC(=O)[C@H](CCCNC(=N)N)NC(=O)[C@H](CCCNC(=N)N)NC(=O)[C@H](CCCNC(=N)N)NC(=O)[C@H](CCCNC(=N)N)NC(=O)[C@H](CCCNC(=N)N)NC(=O)[C@H](CCCNC(=N)N)NC(=O)[C@H](CCCNC(=N)N)NC(=O)[C@H](CCCNC(=N)N)NC(=O)[C@H](CCCNC(=N)N)NC(C)=O)C(N)=O)[C@@H](C)CC)C(C)C)NC(=O)[C@H](CC(=O)O)NC(=O)[C@H](CC(C)C)NC1=O
IC50 [1]: > 20 µM | Activity [2]: Active

Structure (SMILES): CC(=O)N[C@@H](Cc1ccc(O)cc1)C(=O)NCC(=O)N[C@@H](CCCNC(=N)N)C(=O)N[C@@H](CCCCN)C(=O)N[C@@H](CCCCN)C(=O)N[C@@H](CCCNC(=N)N)C(=O)N[C@@H](CCCNC(=N)N)C(=O)N[C@@H](CCC(N)=O)C(=O)N[C@@H](CCCNC(=N)N)C(=O)N[C@@H](CCCNC(=N)N)C(=O)N[C@@H](CCCNC(=N)N)C(=O)NCCCC[C@H](NC(=O)COCCOCCNC(=O)[C@H](CO)NC(=O)[C@@H](NC(=O)[C@H](CC(C)C)NC(=O)[C@H](CCC(N)=O)NC(=O)[C@@H]1CCCCNC(=O)C[C@H](NC(=O)[C@H](Cc2ccccc2)NC(=O)[C@@H](NC(=O)[C@H](CC(C)C)NC(C)=O)[C@@H](C)O)C(=O)N[C@@H](Cc2cnc[nH]2)C(=O)N[C@@H](Cc2ccc(O)cc2)C(=O)N[C@@H](Cc2c[nH]c3ccccc23)C(=O)N1)[C@@H](C)O)C(N)=O
Activity [10]: Toxic | Activity [11]: Toxic | Activity [13]: inactive

Structure (SMILES): CC(=O)N[C@@H](CCCNC(=N)N)C(=O)N[C@@H](CCCNC(=N)N)C(=O)N[C@@H](CCCNC(=N)N)C(=O)N[C@@H](CCCNC(=N)N)C(=O)N[C@@H](CCCNC(=N)N)C(=O)N[C@@H](CCCNC(=N)N)C(=O)N[C@@H](CCCNC(=N)N)C(=O)N[C@@H](CCCNC(=N)N)C(=O)N[C@@H](CCCNC(=N)N)C(=O)NCCCC[C@H](NC(=O)COCCOCCNC(=O)[C@H](CO)NC(=O)[C@@H](NC(=O)[C@H](CC(C)C)NC(=O)[C@H](CCC(N)=O)NC(=O)[C@@H]1CCCCNC(=O)C[C@H](NC(=O)[C@H](Cc2ccccc2)NC(=O)[C@@H](NC(=O)[C@H](CC(C)C)NC(C)=O)[C@@H](C)O)C(=O)N[C@@H](Cc2cnc[nH]2)C(=O)N[C@@H](Cc2ccc(O)cc2)C(=O)N[C@@H](Cc2c[nH]c3ccccc23)C(=O)N1)[C@@H](C)O)C(N)=O
Activity [10]: Toxic | Activity [11]: Toxic | Activity [13]: inactive

Structure (SMILES): CC(=O)N[C@@H](CC(C)C)C(=O)N[C@H](C(=O)N[C@@H](Cc1ccccc1)C(=O)N[C@H]1CC(=O)NCCCC[C@@H](C(=O)N[C@@H](CCC(N)=O)C(=O)N[C@@H](CC(C)C)C(=O)N[C@H](C(=O)N[C@@H](CO)C(=O)NCCOCCOCC(=O)N[C@@H](CCCCN)C(N)=O)[C@@H](C)O)NC(=O)[C@H](Cc2c[nH]c3ccccc23)NC(=O)[C@H](Cc2ccc(O)cc2)NC(=O)[C@H](Cc2cnc[nH]2)NC1=O)[C@@H](C)O (Ac-LTFDHYWKQLTS[AEEA]K-NH2; lactam 4-8)
Activity [15]: inactive

Second part, the compound after the results:

permeability [14]: 8.9%
Structure (SMILES): CC[C@H](C)[C@@H]1NC(=O)[C@@H](NC(=O)[C@H](CCC(=O)O)NC(=O)[C@@H]2CCCN2C(=O)[C@H](CC(N)=O)NC(=O)CCNC(=O)c2ccc(-c3c4ccc5cc(O)ccc5c4oc4c3ccc3cc(=O)ccc34)c(C(=O)O)c2)CSCc2cccc(c2)CSC[C@@H](C(=O)N[C@@H](Cc2cnc[nH]2)C(=O)N[C@H](C(=O)N[C@@H](CCC(N)=O)C(=O)N[C@@H](CCCNC(=N)N)C(=O)N[C@H](C(=O)N[C@@H](CCSC)C(N)=O)C(C)C)C(C)C)NC(=O)[C@H](CC(=O)O)NC(=O)[C@H](CC(C)C)NC1=O ({X2-βAla}-NPECILDCHVQRVM-NH2; linker 4-8 via mXylylene)

EC50 [12]: 4.2 µM
Structure (SMILES): COc1ccc(C2=N[C@@H](c3ccc(Cl)cc3)[C@@H](c3ccc(Cl)cc3)N2C(=O)N2CCNC(=O)C2)c(OC(C)C)c1 [NUTLIN-3]

permeability [14]: 2.5%
Structure (SMILES): CC[C@H](C)[C@@H]1NC(=O)[C@@H](NC(=O)[C@H](CCC(=O)O)NC(=O)[C@@H]2CCCN2C(=O)[C@H](CC(N)=O)NC(=O)[C@H](CCC(=O)O)NC(=O)CCNC(=O)c2ccc(-c3c4ccc5cc(O)ccc5c4oc4c3ccc3cc(=O)ccc34)c(C(=O)O)c2)CSCc2cccc(c2)CSC[C@@H](C(=O)N[C@@H](Cc2cnc[nH]2)C(=O)N[C@H](C(=O)N[C@@H](CCC(N)=O)C(=O)N[C@@H](CCCNC(=N)N)C(=O)N[C@H](C(=O)N[C@@H](CCSC)C(N)=O)C(C)C)C(C)C)NC(=O)[C@H](CC(=O)O)NC(=O)[C@H](CC(C)C)NC1=O ({X2-βAla}-ENPECILDCHVQRVM-NH2; linker 5-9 via mXylylene)

— ChEMBL document CHEMBL4376831, “Enhancing the Cell Permeability of Stapled Peptides with a Cyclic Cell-Penetrating Peptide” (J Med Chem, 2019)
